Laboratory results from PMC7481482, “Development of Anthraquinone Derivatives as Ectonucleoside Triphosphate Diphosphohydrolase (NTPDase) Inhibitors With Selectivity for NTPDase2 and NTPDase3” (Frontiers in Pharmacology, 2020).
Where a name gives a salt, the structure may show the parent alone.

Key:
[1] = molecular target: T1, human NTPDase2 (Homo sapiens, UniProt Q9Y5L3); experiment: Malachite green assay, human NTPDase2; type: biochemical; settings: 100 µM ATP, COS-7 membrane preparation; for IC50: read-out: IC50 ± SEM, NTPDase2; for inhibition at 2 µM: read-out: % inhibition at 2 μM concentration, NTPDase2
T1 construct: expressed in transfected cells; host or cells: COS-7 cells (membrane preparation)
T1 sequence (Q9Y5L3 1-495): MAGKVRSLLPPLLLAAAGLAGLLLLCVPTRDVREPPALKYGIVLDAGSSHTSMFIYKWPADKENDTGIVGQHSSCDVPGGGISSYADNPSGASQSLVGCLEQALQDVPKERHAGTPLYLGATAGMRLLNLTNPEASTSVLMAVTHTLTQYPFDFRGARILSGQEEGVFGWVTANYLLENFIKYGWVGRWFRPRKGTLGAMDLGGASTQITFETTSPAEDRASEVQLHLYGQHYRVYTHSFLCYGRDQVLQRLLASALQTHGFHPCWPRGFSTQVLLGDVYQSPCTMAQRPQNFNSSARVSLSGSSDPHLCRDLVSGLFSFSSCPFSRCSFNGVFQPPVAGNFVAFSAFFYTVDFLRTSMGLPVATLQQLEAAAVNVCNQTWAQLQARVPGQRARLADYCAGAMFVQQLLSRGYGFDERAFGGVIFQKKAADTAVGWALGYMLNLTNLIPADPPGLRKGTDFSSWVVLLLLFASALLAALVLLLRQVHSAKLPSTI
Protocol: (§1) Membrane preparations expressing human NTPDase1, -2, -3, or -8, respectively, were obtained as previously described ([Sévigny et al., 1997]; [Cogan et al., 1999]; [Kukulski et al., 2005]; [Lecka et al., 2013]; [Lee et al., 2018]). Enzyme inhibition assays were performed using the malachite green assay in analogy to published procedures with some modifications ([Dou et al., 2018]). The reaction buffer contained 10 mM HEPES, 2 mM CaCl2, and 1 mM MgCl2 (pH 7.4) in a final volume of 50 μL in transparent 96-well half-area plates. The compounds were initially tested at a final concentration of 2 µM using a COS-7-cell membrane preparation expressing the appropriate NTPDase isoenzyme (protein amount: 143 ng for NTPDase1, 175 ng for NTPDase2, 152 ng for NTPDase3, and 175 ng for NTPDase8). Preincubated of the enzyme preparations was perfomred at 37°C in the presence or absence of test compounds with gentle shaking (Eppendorf Thermomixer comfort at 500 rpm) for 5 min. […] ([Kukulski et al., 2005]). After 15 min of incubation at 37°C with gentle shaking, the reaction was stopped by the addition of the detection reagents (20 µL malachite green solution, 0.6 mM, and 30 µL of ammonium molybdate solution, 20 mM, in 1.5 M sulfuric acid). The released inorganic phosphate was quantified after 20 min of gentle shaking at 25°C by measuring the absorption of the malachite green-phosphomolybdate complex at 600 nm using a BMG PheraStar FS plate reader (BMG Labtech GmbH, Ortenberg, Germany). The corrected absorption was calculated by subtracting the absorption of the negative control samples, which were incubated with previously denatured enzyme (90°C, 15 min). Full concentration-inhibition curves were determined with inhibitor concentrations ranging from 0.03 to 30 µM in the presence of 2% DMSO. Inhibition-type experiments were performed with 25, 50, 100, 150 and 200 µM ATP as substrate for NTPDase2 in the presence of inhibitor 20 (0, 0.25, 0.5, and 1 µM) and 25, 50, 100 and 150 µM ATP substrate for NTPDase3 and compound 42 (0.25, 0.5, and 1 µM). For all of the presented data, at least three independent experiments were performed, and IC50 values were calculated by GraphPad Prism 8 software.
(§2) Inhibition of human NTPDases was performed using the malachite green assay, which was established on a robotic system (Z’ factors > 0.70) ([Baykov et al., 1988]; [Fiene et al., 2015]). The malachite green assay enables the detection of the phosphate produced by the enzymatic hydrolysis of nucleotides. A fixed substrate concentration of 50 µM ATP for NTPDase1 and 100 µM for NTPDase2, -3, and -8 was employed. Test compounds were initially screened at a concentration of 2 μM. […] A total of 48 synthesized anthraquinone derivatives including 14 new compounds not previously described in the literature were evaluated for their inhibitory activity at human NTPDase1, -2, -3, and -8 (for results see Table 1).

[2] = molecular target: T2, human NTPDase8 (Homo sapiens, UniProt Q5MY95); experiment: Malachite green assay, human NTPDase8; type: biochemical; settings: for inhibition at 2 µM: read-out: % inhibition at 2 μM concentration, NTPDase8
T2 construct: expressed in transfected cells; host or cells: COS-7 cells (membrane preparation)
T2 sequence (Q5MY95 1-495): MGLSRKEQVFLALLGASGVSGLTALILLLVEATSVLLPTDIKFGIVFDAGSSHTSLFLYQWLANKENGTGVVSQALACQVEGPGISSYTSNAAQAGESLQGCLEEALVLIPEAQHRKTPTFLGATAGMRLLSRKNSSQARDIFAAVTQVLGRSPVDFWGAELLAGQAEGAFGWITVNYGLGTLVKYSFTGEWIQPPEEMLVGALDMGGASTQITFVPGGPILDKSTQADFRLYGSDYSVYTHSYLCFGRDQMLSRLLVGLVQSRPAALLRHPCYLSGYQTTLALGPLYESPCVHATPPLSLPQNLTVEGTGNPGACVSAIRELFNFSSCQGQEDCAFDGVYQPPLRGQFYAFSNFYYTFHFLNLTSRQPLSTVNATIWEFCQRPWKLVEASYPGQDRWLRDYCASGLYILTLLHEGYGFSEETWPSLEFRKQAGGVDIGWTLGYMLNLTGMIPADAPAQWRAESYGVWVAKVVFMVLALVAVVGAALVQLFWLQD
Protocol: as §1, §2

[3] = molecular target: T3, human NTPDase1 (Homo sapiens, UniProt P49961); experiment: Malachite green assay, human NTPDase1; type: biochemical; settings: 2 μM compound, 50 µM ATP, COS-7 membrane preparation; for inhibition at 2 µM: read-out: % inhibition at 2 μM concentration, NTPDase1
T3 construct: expressed in transfected cells; host or cells: COS-7 cells (membrane preparation)
T3 sequence (P49961 1-510): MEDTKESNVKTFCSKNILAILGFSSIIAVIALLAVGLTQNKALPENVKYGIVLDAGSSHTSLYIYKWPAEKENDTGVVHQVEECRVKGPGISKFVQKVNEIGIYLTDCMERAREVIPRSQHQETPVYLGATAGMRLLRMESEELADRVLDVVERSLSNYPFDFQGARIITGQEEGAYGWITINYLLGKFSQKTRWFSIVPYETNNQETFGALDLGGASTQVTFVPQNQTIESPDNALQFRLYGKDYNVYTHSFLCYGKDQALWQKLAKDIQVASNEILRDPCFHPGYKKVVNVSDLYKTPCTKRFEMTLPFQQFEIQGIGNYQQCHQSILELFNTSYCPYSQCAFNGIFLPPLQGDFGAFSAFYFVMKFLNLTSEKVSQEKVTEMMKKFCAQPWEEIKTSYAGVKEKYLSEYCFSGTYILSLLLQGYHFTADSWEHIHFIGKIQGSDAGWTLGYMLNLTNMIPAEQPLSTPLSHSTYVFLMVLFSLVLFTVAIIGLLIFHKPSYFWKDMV
Protocol: as §1, §2

[4] = molecular target: T4, human NTPDase3 (Homo sapiens, UniProt O75355); experiment: Malachite green assay, human NTPDase3; type: biochemical; settings: 100 µM ATP, COS-7 membrane preparation; for inhibition at 2 µM: 2 μM compound, read-out: % inhibition at 2 μM concentration, NTPDase3; for IC50: read-out: IC50 ± SEM, NTPDase3
T4 construct: expressed in transfected cells; host or cells: COS-7 cells (membrane preparation)
T4 sequence (O75355 1-529): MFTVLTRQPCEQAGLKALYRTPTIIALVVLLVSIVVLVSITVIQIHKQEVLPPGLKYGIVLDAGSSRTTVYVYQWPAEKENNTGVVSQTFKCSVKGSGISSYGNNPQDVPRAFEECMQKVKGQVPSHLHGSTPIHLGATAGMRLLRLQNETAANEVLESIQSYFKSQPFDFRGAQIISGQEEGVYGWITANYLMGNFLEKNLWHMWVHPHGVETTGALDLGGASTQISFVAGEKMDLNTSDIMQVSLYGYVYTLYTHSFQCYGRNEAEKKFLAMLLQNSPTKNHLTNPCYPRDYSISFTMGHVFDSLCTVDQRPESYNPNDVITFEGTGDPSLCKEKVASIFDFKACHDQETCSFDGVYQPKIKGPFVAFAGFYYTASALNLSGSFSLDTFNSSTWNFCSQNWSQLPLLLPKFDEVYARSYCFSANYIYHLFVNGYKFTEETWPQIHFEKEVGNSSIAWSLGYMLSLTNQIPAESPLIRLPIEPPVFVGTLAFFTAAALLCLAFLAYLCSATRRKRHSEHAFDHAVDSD
Protocol: as §1, §2

[5] = 2 μM compound, 100 µM ATP, COS-7 membrane preparation

Structure (SMILES)	IC50 [1]	inhibition at 2 µM [2, 5]	inhibition at 2 µM [3]	inhibition at 2 µM [4]	melting point	inhibition at 2 µM ([1]; 2 μM compound)	IC50 [4]	% inhibition at 2 μM concentration, NTPDase2 ([1]; 2 μM compound)	inhibitory activity at NTPDase8 (in words) [2]	% inhibition at 2 μM concentration, NTPDase8 [2, 5]	% inhibition at 2 μM concentration, NTPDase1 [3]
Cc1ccc(Sc2ccc(Nc3cc(S(=O)(=O)O)c(N)c4c3C(=O)c3ccccc3C4=O)cc2)cc1C [Compound 51]	832 ± 53 nM	27%	51%	44%	–	–	–	–	–	–	–
Nc1c(S(=O)(=O)O)cc(Nc2ccc(Sc3ccccc3)c(Cl)c2)c2c1C(=O)c1ccccc1C2=O (as salt: sodium) [Compound 48, Sodium 1-amino-4-(3-chloro-4-phenylsulfanyl)-phenylamino-9,10-dioxo-9,10-dihydroanthracene-2-sulfonate]	–	–	–	–	> 300 °C	–	–	–	–	–	–
Cc1cc(Cl)ccc1Nc1cc(S(=O)(=O)O)c(N)c2c1C(=O)c1ccccc1C2=O [Compound 38]	5450 ± 700 nM	-1%	2%	9%	–	–	–	–	–	–	–
Nc1c(S(=O)(=O)O)cc(Nc2ccc(Cl)cc2C(=O)O)c2c1C(=O)c1ccccc1C2=O [Compound 36]	–	-17%	-20%	–	–	-2%	4040 ± 470 nM	–	–	–	–
Nc1c(S(=O)(=O)O)cc(Nc2cccc3cccc(S(=O)(=O)O)c23)c2c1C(=O)c1ccccc1C2=O [Compound 17]	–	-11%	-1%	–	–	15%	1640 ± 260 nM	–	–	–	–
Nc1c(S(=O)(=O)O)cc(Nc2ccc(Oc3ccc(Br)cc3)cc2)c2c1C(=O)c1ccccc1C2=O [Compound 46]	1730 ± 290 nM	10%	33%	21%	–	–	–	–	–	–	–
Nc1c(S(=O)(=O)O)cc(Nc2cccc([N+](=O)[O-])c2)c2c1C(=O)c1ccccc1C2=O [Compound 24]	–	3%	-32%	–	–	19%	15300 ± 2500 nM	–	–	–	–
Nc1c(S(=O)(=O)O)cc(Nc2ccccc2)c2c1C(=O)c1ccccc1C2=O [Compound 14]	–	-15%	-13%	-10%	–	15%	–	–	–	–	–
Cc1cc(Nc2cccc(F)c2)c2c(c1N)C(=O)c1ccccc1C2=O [Compound 54]	–	-2%	-4%	-2%	–	7%	–	–	–	–	–
Nc1c(S(=O)(=O)O)cc(Nc2cccc(F)c2)c2c1C(=O)c1ccccc1C2=O [Compound 21]	–	-1%	-8%	0%	–	15%	–	–	–	–	–
Cc1ccc2ccccc2c1Nc1cc(S(=O)(=O)O)c(N)c2c1C(=O)c1ccccc1C2=O [Compound 16]	5620 ± 720 nM	3%	3%	-21%	–	–	–	–	–	–	–
Cc1ccc(C)c(Sc2ccc(Nc3cc(S(=O)(=O)O)c(N)c4c3C(=O)c3ccccc3C4=O)cc2)c1 [Compound 50]	1130 ± 270 nM	17%	38%	34%	–	–	–	–	–	–	–
Nc1ccc(Nc2cc(S(=O)(=O)O)c(N)c3c2C(=O)c2ccccc2C3=O)cc1 [Compound 25]	–	-12%	-19%	-25%	–	17%	–	–	–	–	–
COc1cccc(Nc2cc(C)c(N)c3c2C(=O)c2ccccc2C3=O)c1 [Compound 55]	–	-2%	-6%	0%	–	3%	–	–	–	–	–
Nc1c(S(=O)(=O)O)cc(Nc2ccc(Nc3nc(Cl)nc(Nc4cccc(S(=O)(=O)O)c4)n3)c(S(=O)(=O)O)c2)c2c1C(=O)c1ccccc1C2=O [Compound 5, reactive blue-2, reference compound]	–	–	–	–	–	–	942 ± 24 nM	(42) %	inactive	(-8) %	(17) %
Nc1c(S(=O)(=O)O)cc(Nc2ccc3cc(C(=O)O)ccc3c2)c2c1C(=O)c1ccccc1C2=O [Compound 19]	–	-35%	0%	–	–	13%	4720 ± 400 nM	–	–	–	–
Nc1ccc(Nc2cc(S(=O)(=O)O)c(N)c3c2C(=O)c2ccccc2C3=O)cc1S(=O)(=O)O [Compound 32]	–	-20%	10%	–	–	5%	1730 ± 550 nM	–	–	–	–
